Assay results as given in US8889595B2, “Herbicides” (Syngenta Participations AG, priority 2008, dated 2014).

Tests used:
Assay type in all cases: in vivo
Avena fatua (AVEFA) [1] = test: Post-emergence herbicidal activity, glasshouse; settings: post-emergence spray after 8 days cultivation; rate 250 g/ha; evaluated after 13 days; 100=total damage to plant, 0=no damage to plant
Procedure: (§1) Seeds of a variety of test species are sown in standard soil in pots. After cultivation for one day (pre-emergence) or after 8 days cultivation (post-emergence) under controlled conditions in a glasshouse (at 24/16° C., day/night; 14 hours light; 65% humidity), the plants are sprayed with an aqueous spray solution derived from the formulation of the technical active ingredient in acetone/water (50:50) solution containing 0.5% Tween 20 (polyoxyethelyene sorbitan monolaurate, CAS RN 9005-64-5). The test plants are then grown in a glasshouse under controlled conditions in a glasshouse (at 24/16° C., day/night; 14 hours light; 65% humidity) and watered twice daily. After 13 days for pre and post-emergence, the test is evaluated (100=total damage to plant; 0=no damage to plant). Test plants: • Lolium perenne (LOLPE), Alopecurus myosuroides (ALOMY), Echinochloa crus-galli (ECHCG), Avena fatua (AVEFA)

[2] = system: Echinochloa crus-galli (ECHCG); test: Post-emergence herbicidal activity, glasshouse; settings: post-emergence spray after 8 days cultivation; rate 250 g/ha; evaluated after 13 days; 100=total damage to plant, 0=no damage to plant
Procedure: as §1

[3] = system: Alopecurus myosuroides (ALOMY); test: Post-emergence herbicidal activity, glasshouse; settings: post-emergence spray after 8 days cultivation; rate 250 g/ha; evaluated after 13 days; 100=total damage to plant, 0=no damage to plant
Procedure: as §1

Lolium perenne (LOLPE) [4] = test: Post-emergence herbicidal activity, glasshouse; settings: post-emergence spray after 8 days cultivation; rate 250 g/ha; evaluated after 13 days; 100=total damage to plant, 0=no damage to plant
Procedure: as §1

Avena fatua (AVEFA) [5] = test: Pre-emergence herbicidal activity, glasshouse; settings: pre-emergence spray after one day cultivation; rate 250 g/ha; evaluated after 13 days; 100=total damage to plant, 0=no damage to plant
Procedure: as §1

[6] = system: Echinochloa crus-galli (ECHCG); test: Pre-emergence herbicidal activity, glasshouse; settings: pre-emergence spray after one day cultivation; rate 250 g/ha; evaluated after 13 days; 100=total damage to plant, 0=no damage to plant
Procedure: as §1

[7] = system: Alopecurus myosuroides (ALOMY); test: Pre-emergence herbicidal activity, glasshouse; settings: pre-emergence spray after one day cultivation; rate 250 g/ha; evaluated after 13 days; 100=total damage to plant, 0=no damage to plant
Procedure: as §1

Lolium perenne (LOLPE) [8] = test: Pre-emergence herbicidal activity, glasshouse; settings: pre-emergence spray after one day cultivation; rate 250 g/ha; evaluated after 13 days; 100=total damage to plant, 0=no damage to plant
Procedure: as §1

SMILES: Cc1cc(C)c(C2C(=O)C/C(=C\c3ccco3)C2=O)c(C)c1 (centres unmarked) [Compound T8]
- Post-Emergence Activity AVEFA (Avena fatua (AVEFA) [1]): 0
- Post-Emergence Activity ECHCG [2]: 30
- Post-Emergence Activity ALOMY [3]: 10
- Post-Emergence Activity LOLPE (Lolium perenne (LOLPE) [4]): 30

SMILES: Cc1cc(C)c(C2C(=O)CC(Cc3ccoc3)C2=O)c(C)c1 (centres unmarked) [Compound T2, 4-Furan-3-ylmethyl-2-(2,4,6-trimethyl-phenyl)-cyclopentane-1,3-dione]
- Pre-Emergence Activity AVEFA (Avena fatua (AVEFA) [5]): 20
- Pre-Emergence Activity ECHCG [6]: 0
- Pre-Emergence Activity ALOMY [7]: 30
- Pre-Emergence Activity LOLPE (Lolium perenne (LOLPE) [8]): 80
- Post-Emergence Activity AVEFA (Avena fatua (AVEFA) [1]): 20
- Post-Emergence Activity ECHCG [2]: 80
- Post-Emergence Activity ALOMY [3]: 60
- Post-Emergence Activity LOLPE (Lolium perenne (LOLPE) [4]): 80

SMILES: Cc1cc(C)c(C2C(=O)CC(Cc3ccc(C)o3)C2=O)c(C)c1 (centres unmarked) [Compound T4]
- Post-Emergence Activity AVEFA (Avena fatua (AVEFA) [1]): 20
- Post-Emergence Activity ECHCG [2]: 30
- Post-Emergence Activity ALOMY [3]: 40
- Post-Emergence Activity LOLPE (Lolium perenne (LOLPE) [4]): 50

SMILES: Cc1cc(C)c(C2=C(OC(=O)C(C)(C)C)C/C(=C\c3ccoc3)C2=O)c(C)c1 [Compound P2, 2,2-Dimethyl-propionic acid 4-[1-furan-3-yl-meth-(E)-ylidene]-3-oxo-2-(2,4,6-trimethyl-phenyl)-cyclopent-1-enyl ester]
- Pre-Emergence Activity AVEFA (Avena fatua (AVEFA) [5]): 0
- Pre-Emergence Activity ECHCG [6]: 0
- Pre-Emergence Activity ALOMY [7]: 0
- Pre-Emergence Activity LOLPE (Lolium perenne (LOLPE) [8]): 90

SMILES: COC1=C(c2c(C)cc(C)cc2C)C(=O)C(C(O)c2cc(C)c(C)o2)C1 (centres unmarked) [Compound P1]
- Pre-Emergence Activity AVEFA (Avena fatua (AVEFA) [5]): 0
- Pre-Emergence Activity ECHCG [6]: 0
- Pre-Emergence Activity ALOMY [7]: 0
- Pre-Emergence Activity LOLPE (Lolium perenne (LOLPE) [8]): 40

SMILES: Cc1cc(C)c(C2C(=O)CC(Cc3cc(C)on3)C2=O)c(C)c1 (centres unmarked) [Compound T3, 4-(5-methyl-isoxazol-3-ylmethyl)-2-(2,4,6-trimethyl-phenyl)-cyclopentane-1,3-dione]
- Pre-Emergence Activity AVEFA (Avena fatua (AVEFA) [5]): 70
- Pre-Emergence Activity ECHCG [6]: 80
- Pre-Emergence Activity ALOMY [7]: 100
- Pre-Emergence Activity LOLPE (Lolium perenne (LOLPE) [8]): 100
- Post-Emergence Activity AVEFA (Avena fatua (AVEFA) [1]): 80
- Post-Emergence Activity ECHCG [2]: 80
- Post-Emergence Activity ALOMY [3]: 90
- Post-Emergence Activity LOLPE (Lolium perenne (LOLPE) [4]): 90
